The text below walks through data of patent US11472781B2, “2-aminoaryl-5-aryloxazole analogs for the treatment of neurodegenerative diseases” (Southern Research Institute, priority 2018, dated 2022).

Structures are written as SMILES. Where two headings read alike, the source gives them in different places. Bounds are passed on as bounds.

In data set [1] the test system is NF-κB. The data set can be described thus: High throughput assay for NF-κB reporter activity (luciferase) in stably transfected SH-SY5Y cells. In kind it is cell-based, human. The conditions noted are these: for EC50: 24 hr; for maximal fold induction: 24 h, read-out: Emax. The protocol:
SH-SY5Y human neuroblastoma cell line was obtained from the American Tissue Culture collection (ATCC). A commercially available expression vector containing the NF-kB promoter enhancer region driving the firefly luciferase gene expression and a second plasmid containing the gene conferring resistance to blasticidin were used in a dual transfection approach to obtain a stable cell line. […] Luciferase activity was measured as a reporter of NF-kB activation using the Bright-Glo Luciferase assay kit (Cat. No. E2620, Promega, Madison, Wis.) according to the manufacturer's instructions. Cell viability was measured using the CellTiter-Glo Luminescent Cell Viability assay kit (Cat. No. G7572, Promega, Madison, Wis.) according to the manufacturer's instructions. Briefly, cells were equilibrated at room temperature for 30 min prior to the addition of Bright-Glo to the white opaque plates or CellTiter-Glo to the black clear bottom plates. A volume of assay buffer equal to the volume of cell media was added to each well and incubated for five min to allow complete cell lysis. All procedures were performed in the dark.

In data set [2] the test system is SOD1 G93A transgenic mouse. Nature of the data set: Efficacy in the SOD1 G93A transgenic mouse model of ALS. Type of data set: in vivo. The conditions noted are these: 25 mg/kg I.P. daily from day 96. As to the method: Briefly, Congenic SOD1-G93A mice were doced with up to 50 mg/kg of both compounds (IP) to evaluate any toxicity issues prior to initiating the efficacy study. Also, mice administered 20 mg of each compound had high plasma and brain levels at 30 minutes. Next, individually genotyped SOD1-G93A mice (Prize4life-Jackson Labs) were treated with each compound (25 mg/kg, IP) at disease onset (day 96). The treatment extended survival, reduced weight loss and improved the neurologic symptoms. […] The average weight within the groups before the treatment was similar.
While compounds which increase SOD2 expression and activity have potential utility in a number of neurodegenerative diseases involving ROS overproduction, it was decided to test these two compounds in a mouse model of ALS for a variety of reasons, including the evidence for oxidative stress in ALS (described above), the ability of these compounds to induce SOD2 in a motor neuron-like mouse cell line (NSC-34; FIG. 3B), and the availability of a mouse model with dysfunction in SOD1 (human SOD1 G93A transgenic mouse; Jackson Laboratory). The pilot experiment involved treating six wildtype and six SOD1 G93A transgenic males on the C57BL/6 background with 25 mg/kg compound no. 1 and compound no. 2 I.P. daily, beginning around disease onset (day 96; FIG. 4A and FIG. 4B). Mouse survival and behavioral phenotype were observed based on guidelines from “Working with ALS mice: JAX handbook,” using a 4-point severity score (FIG. 4C).
Referring to FIG. 4A and FIG. 4B, SOD1 G93A mice received daily IP injections of saline (control) or compounds (25 mg/kg) starting on day 96.
Referring. To FIG. 4C, progression from neurological score 1 was delayed only by compound no. 2 (2 day delay, +30%), progression to higher (worse) scores was delayed by both compounds. *P<0.05; **P<0.01, 2-way ANOVA.

Data set [3] can be described thus: Plasma and brain levels after I.P. dosing of SOD1 G93A mice. The conditions noted are these: 50 mg/kg I.P., within 30 minutes. In kind it is in vivo.
Data set [4] concerns SOD2. The data set can be described thus: Quantitative RT-PCR for SOD2 mRNA in SH-SY5Y neuroblastoma cells. In kind it is cell-based, human. The conditions noted are these: 1 μM, 6 h. The protocol:
Referring to FIG. 1A and FIG. 1B, SH-SY5Y neuroblastoma cells were treated with vehicle or compounds (1 μM) for 6 or 24 hours, and cells were collected for RNA isolation (Trizol method). Quantitative RT-PCR for Manganese superoxide dismutase (SOD2; FIG. 1A) or brain-derived neurotrophic factor (BDNF, exon 1; FIG. 1B) indicates short-term upregulation of SOD2 and BDNF and sustained upregulation of BDNF (n=3-4/group, one-way ANOVA followed by unpaired t-test; […]).
Referring to FIG. 6, treatment of SH-SY5Y neuroblastoma cells with compounds (1 μM, 6 h) induced SOD2 mRNA expression >2 fold, as detected by q-RT-PCR. N=4/group, mean+/−SEM, 2-way ANOVA, post-hoc t-test. *p<0.05).

A short description of data set [5]: In vivo PK (I.V./P.O.). The arrangement: species or system mice. The conditions noted are these: I.V./P.O., 1 and 5 mg/kg, respectively. As to the method: Before the studies above were initiated, congenic SOD1 G93A mice were dosed with 50 mg/kg of compound no. 1 and compound no. 2 via I.P. injection to rule out any toxicity issues prior to initiating the efficacy study (FIG. 4A-C).
The experiments will involve the administration of compounds to 5-6 week old CD1 male mice. Mice are dosed by either a 1 mg/kg IV bolus or 5 mg/kg oral gavage. Blood samples are collected by cardiac puncture at 0, 0.25, 0.5, 1, 2, 4, 6, 8, 12, and 24 hrs. There will be three mice per time point. Plasma concentration over time will be determined by LC/MS from which the standard PK parameters of clearance, volume of distribution, t1/2 and % F can be derived using WinNoLin software (Pharsight Inc.). This will require a total of 60 mice per compound. Plasma will be analyzed by reverse phase chromatography with MS/MS detection operating in the positive ion mode using multiple reaction monitoring using an internal standard and Applied Biosystems Analyst 1.4 software. Peak time (when maximum plasma drug concentration occurs), peak drug level [approximate maximum concentrations of drug in plasma (Cmax)] and t1/2 for drug elimination will be estimated for each tested compound. Bioavailability (F) will be calculated from the ratio of AUCPO/AUCIV and expressed as a percentage. To determine levels in brain, six additional mice will be dosed with 1 mg/kg I.V. and sacrificed at 0.25 and 1 hr. Brain and spinal cord samples will be collected at these two time points, quick frozen in an ice box and kept at −75±15° C. All samples will be weighed and homogenized with phosphate buffered saline (PBS) by brain weight (g) to PBS volume (mL) ratio 1:3 before analysis. The actual concentration is the detected value multiplied by the dilution factor.

For data set [6], the system named is SOD2. Nature of the data set: Quantitative RT-PCR for SOD2 mRNA in NSC-34 neuroblastoma cells. Type of data set: cell-based, mouse. The conditions noted are these: NSC-34, 1 μM, 24 h.
In data set [7] the test system is SOD2. The data set can be described thus: SOD2 protein expression and SOD activity in primary rat cortical cultures. Type of data set: cell-based. The text has this:
N=3-6/group, mean+/−SEM, *p<0.05, **p<0.01, 2-way ANOVA, post-hoc t-test.

One may read the EC50 as the concentration at which the effect is half-maximal.

`Cc1noc(-c2cccc(-c3cnc(N(C)c4ccc(F)cc4)o3)c2)n1` [Compound 98]: the EC50 entry in data set [1] is on record as “Inactive”. For the same molecule, the maximal fold induction in data set [1] (Homo sapiens) is 3.2.
With `COC(=O)c1cccc(-c2cnc(N(c3ccc(F)cc3)C(C)C)o2)c1` [Compound 86], the EC50 entry in data set [1] is reported as “Inactive”. The maximal fold induction in data set [1] (Homo sapiens) stood at 2.2.
For `CCCN(c1ccc(F)cc1)c1ncc(-c2cccc(C(=O)OC)c2)o1` [Compound 89] the same measures were “Inactive” and 3.
For `O=C(O)c1ccc(-c2cnc(Nc3ccc(F)cc3)o2)cc1` [Compound 51] the same measures were “Inactive” and 4.22.
On to `O=C(O)c1ccc(-c2cnc(Nc3c(F)cccc3F)o2)cc1` [Compound 53], for which, in data set [1], the concentration for a half-maximal effect (EC50) entry is given as “Inactive”.
As to `NCc1cccc(-c2cnc(Nc3ccccc3F)o2)c1` [Compound 96], the concentration for a half-maximal effect (EC50) entry in data set [1] is recorded as “Inactive”. Moreover, the maximal fold induction in data set [1] (Homo sapiens) is 5.14.
On the same counts, the results for `COC(=O)c1ccccc1-c1cnc(Nc2ccc(F)cc2F)o1` [Compound 76] are “Inactive” and 4.45.
For `COC(=O)c1cccc(-c2cnc(Nc3ccc(OC)cc3)o2)c1` [Compound 90] the same measures were “Inactive” and 2.47.
Consider `O=C(O)c1ccc(-c2cnc(Nc3cccc(F)c3)o2)cc1` [Compound 50], for which, in data set [1], the EC50 result is listed as “Inactive”. Further, in data set [1] (Homo sapiens), the maximal fold induction stood at 6.15.
Take `O=C(O)c1ccccc1-c1cnc(Nc2ccccc2F)o1` [Compound 54]: in data set [1], the half-maximal effective concentration (EC50) result was “Inactive”. Further, in data set [1] (Homo sapiens), the maximal fold induction is 5.37.
As for `COC(=O)c1ccc(-c2cnc(Nc3ccc(F)cc3)o2)cc1` [Compound 67], in data set [1], the EC50 entry is recorded as “Inactive”.
`COC(=O)c1ccc(-c2cnc(Nc3c(F)cc(F)cc3F)o2)cc1` [Compound 72]: the EC50 entry in data set [1] is “Inactive”. Moreover, the maximal fold induction in data set [1] (Homo sapiens) came to 3.97.
For the molecule `Nc1cccc(-c2cnc(Nc3ccccc3F)o2)c1` [Compound 97], in data set [1], the EC50 result is reported as “Inactive”. Moreover, the maximal fold induction in data set [1] (Homo sapiens) is 0.55.
Regarding `COC(=O)c1cccc(-c2cnc(Nc3ccc(Cl)cc3)o2)c1` [Compound 85], the concentration for a half-maximal effect (EC50) entry in data set [1] is “Inactive”. The maximal fold induction in data set [1] (Homo sapiens) came to 5.77.
`Fc1ccccc1Nc1nc(-c2ccccn2)no1` [Compound 81, N-(2-fluorophenyl)-3-(pyridin-2-yl)-1,2,4-oxadiazol-5-amine]: the maximal fold induction in data set [1] (Homo sapiens) is 14.4. In data set [1] (Homo sapiens, read-out: EC50), the concentration for a half-maximal effect (EC50) was 2510 nM.
As for `COC(=O)c1cccc(-c2cnc(Nc3ccc(C#N)cc3)o2)c1` [Compound 88], in data set [1], the EC50 entry was “Inactive”. Moreover, the maximal fold induction in data set [1] (Homo sapiens) was 3.49.
Turning to `CC(C)N(c1ccc(F)cc1)c1ncc(-c2cccc(C(=O)O)c2)o1` [Compound 83], the EC50 entry in data set [1] was “Inactive”. Further, the maximal fold induction in data set [1] (Homo sapiens) was determined as 4.5.
For the molecule `O=C(O)c1ccccc1-c1cnc(Nc2cc(F)ccc2F)o1` [Compound 55], the 50% effective concentration (EC50) result in data set [1] was “Inactive”. Moreover, in data set [1] (Homo sapiens), the maximal fold induction was 4.46.
For `COC(=O)c1ccccc1-c1cnc(Nc2cccc(F)c2)o1` [Compound 74] the same measures were “Inactive” and 2.37.
On the same counts, the results for `COC(=O)c1ccccc1-c1cnc(Nc2c(F)cccc2F)o1` [Compound 78] are “Inactive” and 4.36.
For the molecule `O=C(O)c1cccc(-c2cnc(Nc3ccc(Cl)cc3)o2)c1` [Compound 84], the maximal fold induction in data set [1] (Homo sapiens) turned out to be 11.3. The EC50 in data set [1] (Homo sapiens, read-out: EC50) came to 750 nM.
In the case of `COC(=O)c1ccccc1-c1cnc(Nc2ccccc2F)o1` [Compound 73], the EC50 entry in data set [1] was “Inactive”. Also, the maximal fold induction in data set [1] (Homo sapiens) was determined as 2.37.
Take `O=C(/C=C\Nc1ccccc1Br)c1ccc2c(c1)OCO2` [Compound 1, (Z)-1-(Benzo[d][1,3]dioxol-5-yl)-3-((2-bromophenyl)amino)prop-2-en-1-one]: the maximal fold induction in data set [1] (Homo sapiens) amounted to 26. Moreover, in data set [1] (Homo sapiens, read-out: EC50), the 50% effective concentration (EC50) was 500 nM. Also, the “progression to higher (worse) neurological scores / score of 4” value in data set [2] is on record as “delayed”. Also, the survival result in data set [2] is recorded as “significantly prolonged”. Also, the “plasma and brain levels” value in data set [3] is “substantial plasma and brain levels”. The “SOD2 mRNA expression” value in data set [4] (q-RT-PCR) is given as roughly 2 fold; in data set [4] (SH-SY5Y) it was “induce SOD2”; in data set [6], “induce SOD2”. Besides, the oral bioavailability result in data set [5] was “lack of oral bioavailability”. Also, the half-life in data set [5] (male, CD1, mouse, plasma, read-out: plasma half-life (t1/2)) is less than 5 min. In addition, the SOD2 protein expression result in data set [7] is recorded as “induce SOD2”. Besides, the SOD activity result in data set [7] was “increase”.
On to `COC(=O)c1ccc(-c2cnc(Nc3ccc(F)cc3F)o2)cc1` [Compound 68], for which the maximal fold induction in data set [1] (Homo sapiens) amounted to 4.41. Also, the EC50 in data set [1] (Homo sapiens, read-out: EC50) is greater than 10000 nM.
Take `COC(=O)c1ccc(-c2cnc(Nc3cccc(F)c3F)o2)cc1` [Compound 71]: in data set [1], the EC50 entry is “Inactive”. Further, the maximal fold induction in data set [1] (Homo sapiens) is 7.24.
As to `COC(=O)c1ccccc1-c1cnc(Nc2ccc(F)cc2)o1` [Compound 75], in data set [1], the EC50 entry is “Inactive”. Moreover, in data set [1] (Homo sapiens), the maximal fold induction was 2.97.
With `COC(=O)c1cccc(-c2cnc(Nc3c(F)cc(F)cc3F)o2)c1` [Compound 64], in data set [1] (Homo sapiens), the maximal fold induction is 12.3. For the same molecule, in data set [1] (Homo sapiens, read-out: EC50), the concentration for a half-maximal effect (EC50) was greater than 10000 nM.
On the same counts, the results for `O=C(O)c1cccc(-c2cnc(Nc3c(F)cc(F)cc3F)o2)c1` [Compound 48] are 14.1 and greater than 10000 nM.
Consider `COC(=O)c1cccc(-c2cnc(Nc3ccc(C(F)(F)F)cc3)o2)c1` [Compound 87], for which the half-maximal effective concentration (EC50) result in data set [1] was “Inactive”. Also, the maximal fold induction in data set [1] (Homo sapiens) worked out at 5.29.
With `COC(=O)c1ccccc1-c1cnc(Nc2cc(F)ccc2F)o1` [Compound 77], the concentration giving a half-maximal response (EC50) result in data set [1] was “Inactive”. The maximal fold induction in data set [1] (Homo sapiens) worked out at 2.29.
For `Fc1ccc(Nc2ncc(-c3cccc(-c4nnn[nH]4)c3)o2)cc1` [Compound 93] the same measures were “Inactive” and 2.59.
